Experimental data published in patent US6696458B2 (Super Gen, Inc., priority 2002, dated 2004).

Columns and labels:
[1] = tested on: human colon cancer xenografts; conditions: cited from earlier work
[2] = Moisture sorption/desorption on VTI SGA-100 moisture balance; format: physicochemical; conditions: for hygroscopicity: judged from sorption 5 to 95% RH
Text: The samples were not dried prior to analysis.

[3] = Storage in closed vial at ambient conditions, XRPD comparison; format: physicochemical; conditions: 31 days
[4] = Dehydration/desolvation under vacuum, XRPD comparison; format: physicochemical
Text: The characterization of this weight loss as THF solvent is supported by the ^1H NMR data.

[5] = solubilized by sodium hydroxide in water; cited from earlier work

CC[C@@]1(O)C(=O)OCc2c1cc1n(c2=O)Cc2cc3cc4c(cc3nc2-1)OCO4 [10,11, MD, 10,11-methylendioxy-20(S)-camptothecin]
anticancer activity [1]: high anticancer activity

CC[C@@]1(O)C(=O)OCc2c1cc1n(c2=O)Cc2cc3c(N)cccc3nc2-1 [Form 9AC, 9-Amino-20(S)-Camptothecin]
anticancer activity [1]: high anticancer activity

CC[C@@]1(O)C(=O)OCc2c1cc1n(c2=O)Cc2cc3c([N+](=O)[O-])cccc3nc2-1 [Form A, 9-nitrocamptothecin]
total weight gained in the region from 5 to 95% RH ([2]; 5 to 95% RH): about 0.03%
Weight % chg ([2]; desorption, RH 4.83 %, 25.03 deg C, elapsed 157.3 min): 0.0275%
Weight % chg ([2]; desorption, RH 15.00 %, 25.03 deg C, elapsed 150.3 min): 0.0307%
Weight % chg ([2]; desorption, RH 24.95 %, 25.02 deg C, elapsed 143.3 min): 0.0324%
Weight % chg ([2]; desorption, RH 34.97 %, 25.02 deg C, elapsed 135.8 min): 0.0348%
Weight % chg ([2]; desorption, RH 45.05 %, 25.02 deg C, elapsed 127.8 min): 0.0372%
Weight % chg ([2]; desorption, RH 54.99 %, 25.02 deg C, elapsed 119.8 min): 0.0381%
Weight % chg ([2]; desorption, RH 65.02 %, 25.02 deg C, elapsed 111.8 min): 0.0405%
Weight % chg ([2]; desorption, RH 75.18 %, 25.03 deg C, elapsed 103.8 min): 0.0429%
Weight % chg ([2]; desorption, RH 84.95 %, 25.03 deg C, elapsed 94.8 min): 0.0429%
water gained upon equilibration to 5% RH ([2]; equilibration to 5% RH): 0.01%
hygroscopicity [2]: not hygroscopic
Weight % chg ([2]; sorption, RH 5.16 %, 25.02 deg C, elapsed 11.1 min): 0.0131%
Weight % chg ([2]; sorption, RH 15.27 %, 25.02 deg C, elapsed 19.6 min): 0.0149%
Weight % chg ([2]; sorption, RH 24.98 %, 25.03 deg C, elapsed 27.2 min): 0.0169%
Weight % chg ([2]; sorption, RH 35.07 %, 25.03 deg C, elapsed 34.7 min): 0.0210%
Weight % chg ([2]; sorption, RH 45.07 %, 25.03 deg C, elapsed 42.2 min): 0.0242%
Weight % chg ([2]; sorption, RH 55.00 %, 25.03 deg C, elapsed 50.2 min): 0.0283%
Weight % chg ([2]; sorption, RH 64.96 %, 25.03 deg C, elapsed 59.2 min): 0.0315%
Weight % chg ([2]; sorption, RH 74.75 %, 25.03 deg C, elapsed 68.3 min): 0.0347%
Weight % chg ([2]; sorption, RH 84.64 %, 25.03 deg C, elapsed 77.3 min): 0.0387%
Weight % chg ([2]; sorption, RH 94.90 %, 25.03 deg C, elapsed 86.3 min): 0.0421%
Weight % chg ([2]; start, RH 14.41 %, 24.99 deg C, elapsed 0.0 min): 0.0000%

CC[C@@]1(O)C(=O)OCc2c1cc1n(c2=O)Cc2cc3c([N+](=O)[O-])cccc3nc2-1 [Form B, 9-nitrocamptothecin]
hygroscopicity [2]: relatively hygroscopic
Weight % chg ([2]; start, RH 9.87 %, 25.03 deg C, elapsed 0.0 min): 0.0000%
stability of crystalline form on storage (XRPD pattern unchanged) [3]: relatively stable

CC[C@@]1(O)C(=O)OCc2c1cc1n(c2=O)Cc2cc3c([N+](=O)[O-])cccc3nc2-1 [Form C, 9-nitrocamptothecin]
form change on attempted desolvation [4]: becomes amorphous

CC[C@@](O)(C(=O)[O-])c1cc2n(c(=O)c1CO)Cc1cc3ccccc3nc1-2.[Na+] [Sodium camptothecin]
antineoplastic activity in clinical trials [5]: antineoplastic activity
